Experimental data as given in patent US11629121B2, “Benzylideneacetone derivative and use thereof” (KORPHARM CO., LTD., priority 2017, dated 2023).
Read-outs that look alike come from different tables or passages of the source.

Assays:
[1] = tested on: B16F10 mouse melanoma cell line; experiment: MTT assay, cancer cells B16F10; type: cell-based; conditions: 48 hours, H16F10
From the text: (§1) The cytotoxicity against normal cells and cancer cells was confirmed using the MTT assay for the novel compounds KP2 to KP8 prepared in Example 1.
(§2) MTT assay method is as follows:
(§3) Normal cells (RAW264.7 rat macrophage cell line (osteoblast progenitor cell) and NIH3T3 mouse fibroblast line) and cancer cells (AGS human gastric cancer cell line, A549 human lung cancer cell line, HepG2 human liver cancer cell line, HCT116 human colon cancer cell line, PC3 human prostate cancer Cell line, Caki-1 human kidney cancer cell line, T24 human bladder cancer cell line, HT1080 human fibrosarcoma cell line, B16F10 mouse melanoma cell line) were cultured in 5% CO2 in 96-well plates containing DMEM with 10% FBS (fetal bovine serum). After incubation, KP2 to KP8 and controls (osmundacetone and 4-hydroxybenzalacetone) were added to the cell medium and incubated for 48 hours. Thereafter, 100 μl of MTT (0.5 mg/mL phosphate buffered saline) was added, followed by incubation for 2 hours. 100 μl of DMSO was added to each well, followed by incubation for 10 minutes, and the absorbance was measured at 550 nm using a microplate reader (SPCTRA MAX 340PC, Molecular Devices, USA). Absorbance is calculated by the formula below as an indicator of the number of cells that survived, and reproducibility was confirmed by three experiments.
(§4) The rate of cell proliferation (%)=OD550(sample)/OD550(control)

[2] = tested on: osteoblasts (mouse MC3T3-E1); experiment: ALP (Alkaline phosphatase) assay, osteoblast activity; type: cell-based; conditions: for % Activation of ALP activity: MC3T3-E1, 14 days, percentage against control
Description: Effect of KP4 to KP6 on proliferation and differentiation of osteoblast were confirmed using ALP (Alkaline phosphatase) assay, a method for measuring osteoblast activity.
Alkaline phosphatase (ALP), which is present in the cell membranes of osteoblasts, is known as a marker of osteoblast activity and is a regulator of inorganic phosphate transport, cell division or differentiation during calcification. Therefore, ALP activity was measured to determine the effect of the compounds of the present invention on the activity of osteoblasts. ALP activity was indirectly calculated by measuring the amount of p-nitrophenol, which is produced from hydrolysis of p-nitrophenyl phosphate (pNPP, Sigma, St. Louis, Mo., USA) in which ALP act as a catalyst, using a microplate reader at 405 nm wavelength.
Specifically, osteoblasts (mouse MC3T3-E1) were aliquoted into a 96-well plate (3×10^3 cells/100 μL/well) with α-MEM medium containing ascorbic acid (50 μg/mL) and 10 mM β-glycerophosphate, a differentiation factors of osteoblast. Then, KP4 to KP6 of the present invention, and osmundacetone were added at a final concentration of 10 μM and 50 μM, followed by changing medium every 72 hours and incubating for 14 days. After 14 days, the culture medium was removed from each well, washed three times with PBS, lysed with 0.2% Nonidet P-40/10 mmol/L MgCl2, and then treated ultrasonic wave with sosonifier cell disrupter (Model W-380, Heat Systems-Ultrasonics Inc., Farmingdale, N.Y.) for 3 minutes. The cell lysate was centrifuged at 1500 g for 10 minutes and the supernatant was collected to measure ALP activity. To account for changes in ALP activity according to cell number differences, total protein levels were measured using bicinchoninic acid (BCA) protein assay kit with bovine serum albumin as the standard protein, and enzyme activity was expressed as a percentage against the control group without the compound treatment.

[3] = tested on: Caki-1 human kidney cancer cell line; experiment: MTT assay, cancer cells Caki-1; type: cell-based; conditions: 48 hours
From the text: as §1, §2, §3, §4

[4] = tested on: A549 human lung cancer cell line; experiment: MTT assay, cancer cells A549; type: cell-based; conditions: MTT assay, 48 hours, A549
From the text: as §1, §2, §3, §4

[5] = tested on: NIH3T3 mouse fibroblast line; experiment: MTT assay, normal cells NIH3T3; type: cell-based
From the text: as §1, §2, §3, §4

[6] = tested on: HCT116 human colon cancer cell line; experiment: MTT assay, cancer cells HCT116; type: cell-based; conditions: MTT assay, 48 hours, HCT116
From the text: as §1, §2, §3, §4

[7] = tested on: RAW264.7 rat macrophage cell line; experiment: MTT assay, normal cells RAW264.7; type: cell-based
From the text: as §1, §2, §3, §4

[8] = tested on: HT1080 human fibrosarcoma cell line; experiment: MTT assay, cancer cells HT1080; type: cell-based; conditions: 48 hours
From the text: as §1, §2, §3, §4

[9] = tested on: T24 human bladder cancer cell line; experiment: MTT assay, cancer cells T24; type: cell-based; conditions: MTT assay, 48 hours, T24
From the text: as §1, §2, §3, §4

[10] = tested on: osteoclast differentiation from bone marrow cells (RANKL and M-CSF); experiment: TRAP assay, osteoclast differentiation and proliferation; type: cell-based, C57BL/6 mice; conditions: TRAP-positive multinucleated cells, mouse bone marrow cells, 6-7 days, read-out: osteoclast differentiation inhibitory activity IC50
Description: The specific method of the TRAP assay is as follows:
The tibia and femur were aseptically excised from 6 to 8 weeks old male C57BL/6 mice, and bone marrow cells were collected aseptically with a syringe (21G, Korea Green Cross). Bone marrow cells were suspended in 500 μl of -MEM medium (Gibco BRL Co.) containing sodium bicarbonate (2.0 g/L), streptomycin (100 mg/L) and penicillin ([…]), and aliquoted into a 48-well plate, and assay was carried out with triplicate. The progenitor cells of osteoclasts, monocytes, were isolated and treated with RANKL and M-CSF, which are differentiation promoters, to differentiate into osteoclasts within 5-7 days.
1) Sample preparation: KP2 to KP8 (0.5 μM, 1 μM, 5 μM or 10 μM), Fosamax (0.5 μM, 1 μM, 5 μM, or 10 μM) and the like were dissolved in DMSO (dimethylsulfoxide) or sterile distilled water at appropriate concentrations, respectively.
2) Sample administration: The Samples were continuously administered to the medium at 1:20 (v/v; 25 μL of sample per 500 μL of medium) from the first day of culture of bone marrow cells, and the medium was replaced at 3 days intervals.
3) Osteoclast differentiation measurement: Osteoclasts were defined as TRAP-positive multinucleated cells stained with TRAP. […] The reaction reagents were stored in the refrigerator until use.
Bone marrow cells were cultured in a medium containing differentiation factors for 6-7 days, and then the medium was removed, washed with PBS, and fixed in PBS containing 10% formalin for 2-5 minutes. After fixed for 1 minute with a 1:1 mixture of ethanol and acetone, and dried. The fixed cells were treated with TRAP staining solution for 60 minutes at 37° C. with light blocking, washed with PBS, and then stained with Hematoxylin.
Among the TRAP-positive cells in the microscope field, cells with two or more nuclei were determined as osteoclasts and the number of cells was measured.

[11] = tested on: AGS human gastric cancer cell line; experiment: MTT assay, cancer cells AGS; type: cell-based; conditions: 48 hours
From the text: as §1, §2, §3, §4

[12] = tested on: PC3 human prostate cancer Cell line; experiment: MTT assay, cancer cells PC3; type: cell-based; conditions: 48 hours
From the text: as §1, §2, §3, §4

[13] = tested on: HepG2 human liver cancer cell line; experiment: MTT assay, cancer cells HepG2; type: cell-based; conditions: MTT assay, 48 hours, HepG2
From the text: as §1, §2, §3, §4

Compound	Cytotoxicity, B16F10 cells [1]	ALP activity / osteoblast activation versus control ([2]; 10 μM and 50 μM)	% Activation of ALP activity ([2]; 10 μM)	% Activation of ALP activity ([2]; 50 μM)	LD63 Cancer cell Caki-1 [3]	LD63 Cancer cell A549 [4]	LD50 Normal cells NTH3T3 ([5]; mouse, 48 h)	LD63 Cancer cell HCT116 [6]	LD50 Normal cells RAW264.7 ([7]; rat, 48 h)	LD63 Cancer cell HT1080 [8]	LD63 Cancer cell T24 [9]	IC50 ([10]; Osteoclast)	LD63 Cancer cell AGS [11]	LD63 Cancer cell PC3 [12]	LD50 Normal cells NTH3T3 ([5]; MTT assay, 48 hours, NTH3T3)	LD50 Normal cells RAW264.7 ([7]; MTT assay, 48 hours, RAW264.7)	IC50 [10]	LD63 Cancer cell HepG2 [13]
CC(=O)/C=C/c1ccc(O)c(F)c1 [KP6, (E)-4-(3-fluoro-4-hydroxyphenyl)-3-buten-2-one]	421 ± 41 µM	no activity on activating osteoblast	102 ± 0.2%	100 ± 0.8%	449 ± 40 µM	901 ± 28 µM	>5000 µM	490 ± 38 µM	1110 ± 48 µM	>5,000 μM	3610 ± 130 µM	6 µM	336 ± 3.9 µM	205 ± 13 µM				
CC(=O)/C=C/c1ccc(O)c(O)c1 [Osmundacetone, reference compound]	64.9 ± 59 µM		115 ± 9.4%	279 ± 61%	695 ± 14 µM	>5000 µM		689 ± 27 µM		>5000 µM	2000 ± 250 µM		56.1 ± 2.1 µM	60.6 ± 14 µM	>5000 µM	529 ± 41 µM	8 µM	>5000 µM
